Measurements from PubChem BioAssay (NCI).
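Dose response: 5 concentrations. Exposure: 48 h. Format: 96-well plates. Endpoint: linear interpolation; highest concentration if not reached. GI50 marks 50% less growth. At the TGI there is no net growth.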

Columns and labels:
Experiment in all cases: DTP human tumour cell line panel, 48 h
[1] = tested on: 786-0 renal
[2] = tested on: A498 renal
[3] = tested on: A549 NSCLC
[4] = tested on: ACHN renal
[5] = tested on: BT-549 breast
[6] = tested on: CAKI-1 renal
[7] = tested on: CCRF-CEM leukemia
[8] = tested on: COLO 205 colon
[9] = tested on: DU-145 prostate
[10] = tested on: HCC-2998 colon
[11] = tested on: HCT-116 colon
[12] = tested on: HCT-15 colon
[13] = tested on: HL-60(TB) leukemia
[14] = tested on: HOP-62 NSCLC
[15] = tested on: HOP-92 NSCLC
[16] = tested on: HS 578T breast
[17] = tested on: HT29 colon
[18] = tested on: IGROV1 ovarian
[19] = tested on: K-562 leukemia
[20] = tested on: KM12 colon
[21] = tested on: LOX IMVI melanoma
[22] = tested on: M14 melanoma
[23] = tested on: MALME-3M melanoma
[24] = tested on: MCF7 breast
[25] = tested on: MDA-MB-231 breast
[26] = tested on: MDA-MB-435
[27] = tested on: MOLT-4 leukemia
[28] = tested on: NCI-H226 lung
[29] = tested on: NCI-H23 lung
[30] = tested on: NCI-H460 lung
[31] = tested on: NCI-H522 lung
[32] = tested on: NCI/ADR-RES ovarian
[33] = tested on: OVCAR-3 ovarian
[34] = tested on: OVCAR-4 ovarian
[35] = tested on: OVCAR-5 ovarian
[36] = tested on: OVCAR-8 ovarian
[37] = tested on: PC-3 prostate
[38] = tested on: RPMI-8226 leukemia
[39] = tested on: RXF 393 renal
[40] = tested on: SF-268 CNS
[41] = tested on: SF-295 CNS
[42] = tested on: SF-539 CNS
[43] = tested on: SK-MEL-2 melanoma
[44] = tested on: SK-MEL-28 melanoma
[45] = tested on: SK-MEL-5 melanoma
[46] = tested on: SK-OV-3 ovarian
[47] = tested on: SN12C renal
[48] = tested on: SNB-19 CNS
[49] = tested on: SNB-75 CNS
[50] = tested on: SR leukemia
[51] = tested on: SW-620 colon
[52] = tested on: T-47D breast
[53] = tested on: TK-10 renal
[54] = tested on: U251 CNS
[55] = tested on: UACC-257 melanoma
[56] = tested on: UACC-62 melanoma
[57] = tested on: UO-31 renal

Work on O=c1c2sc3ccccc3c2nnn1-c1ccc(F)c(Cl)c1 yielded a GI50 [1] of 3.62 µM, a TGI [1] of 11.5 µM and a GI50 [2] of 5.82 µM. For the same compound, the TGI [2] was 24.2 µM, the GI50 [3] was 3.75 µM and the TGI [3] was over 100 µM. For the same compound, the GI50 [4] was 3.88 µM, the TGI [4] was 27.2 µM and the GI50 [5] was 31.7 µM. It also gave a TGI [5] of 95 µM, a GI50 [6] of 3.65 µM and a TGI [6] of over 100 µM. It also gave a GI50 [7] of 4.03 µM, a TGI [7] of 16.9 µM and a GI50 [8] of 3.93 µM. It also gave a TGI [8] of over 100 µM, a GI50 [9] of 15.6 µM and a TGI [9] of over 100 µM. It also gave a GI50 [10] of 24.8 µM, a TGI [10] of over 100 µM and a GI50 [11] of 3.6 µM. The TGI [11] was 20.9 µM, the GI50 [12] was 20.3 µM and the TGI [12] was over 100 µM. It also gave a GI50 [13] of 56.6 µM, a TGI [13] of over 100 µM and a GI50 [14] of 2.17 µM. It also gave a TGI [14] of 5.66 µM, a GI50 [15] of 1.25 µM and a TGI [15] of 4.89 µM. For the same compound, the GI50 [16] was 2.68 µM, the TGI [16] was 10.4 µM and the GI50 [17] was over 100 µM. It also gave a TGI [17] of over 100 µM, a GI50 [18] of 3.66 µM and a TGI [18] of 38 µM. The GI50 [19] was 14.8 µM, the TGI [19] was 39.4 µM and the GI50 [20] was 17.4 µM. The TGI [20] was over 100 µM, the GI50 [21] was 3.9 µM and the TGI [21] was over 100 µM. It also gave a GI50 [22] of 30 µM, a TGI [22] of over 100 µM and a GI50 [23] of 8.17 µM. The TGI [23] was 54.6 µM, the GI50 [24] was 20.4 µM and the TGI [24] was over 100 µM. It also gave a GI50 [25] of 3.99 µM, a TGI [25] of 26.1 µM and a GI50 [26] of over 100 µM. The TGI [26] was over 100 µM, the GI50 [27] was 14.9 µM and the TGI [27] was 32.5 µM. The GI50 [28] was 8.87 µM, the TGI [28] was over 100 µM and the GI50 [29] was 15.7 µM. It also gave a TGI [29] of 62.8 µM, a GI50 [30] of 4.2 µM and a TGI [30] of over 100 µM. The GI50 [31] was 20.2 µM, the TGI [31] was over 100 µM and the GI50 [32] was 17.1 µM. For the same compound, the TGI [32] was over 100 µM, the GI50 [33] was 21.2 µM and the TGI [33] was over 100 µM. It also gave a GI50 [34] of 3.39 µM, a TGI [34] of over 100 µM and a GI50 [35] of 20.8 µM. It also gave a TGI [35] of over 100 µM, a GI50 [36] of 5.16 µM and a TGI [36] of over 100 µM. For the same compound, the GI50 [37] was 7.76 µM, the TGI [37] was over 100 µM and the GI50 [38] was 13.4 µM. The TGI [38] was 41.4 µM, the GI50 [39] was 5.21 µM and the TGI [39] was 22.4 µM. For the same compound, the GI50 [40] was 15 µM, the TGI [40] was 55 µM and the GI50 [41] was 2.56 µM. The TGI [41] was 8.59 µM, the GI50 [42] was 11.9 µM and the TGI [42] was 27.7 µM. The GI50 [43] was 14.8 µM, the TGI [43] was 35 µM and the GI50 [44] was over 100 µM. For the same compound, the TGI [44] was over 100 µM, the GI50 [45] was 39.3 µM and the TGI [45] was over 100 µM. It also gave a GI50 [46] of 3.17 µM, a TGI [46] of 9.92 µM and a GI50 [47] of 15.1 µM. For the same compound, the TGI [47] was over 100 µM, the GI50 [48] was 4.16 µM and the TGI [48] was 34.4 µM. The GI50 [49] was 2.01 µM, the TGI [49] was 8.89 µM and the GI50 [50] was 7.99 µM. For the same compound, the TGI [50] was 22.7 µM, the GI50 [51] was over 100 µM and the TGI [51] was over 100 µM. The GI50 [52] was 8.12 µM, the TGI [52] was over 100 µM and the GI50 [53] was 4.63 µM. It also gave a TGI [53] of 13.8 µM, a GI50 [54] of 4.76 µM and a TGI [54] of 24.9 µM. For the same compound, the GI50 [55] was 29.4 µM, the TGI [55] was over 100 µM and the GI50 [56] was 11.7 µM. For the same compound, the TGI [56] was 38.8 µM, the GI50 [57] was 2.13 µM and the TGI [57] was over 100 µM.

In the case of N#CCCN1C/C(=C/c2ccccc2)C(=O)/C(=C/c2ccccc2)C1, the GI50 [1] is reported as 1.92 µM, the TGI [1] is reported as 4.07 µM and the GI50 [2] is reported as 13.4 µM. It also gave a TGI [2] of 26.8 µM, a GI50 [3] of 3.8 µM and a TGI [3] of 16.2 µM. It also gave a GI50 [4] of 1.83 µM, a TGI [4] of 3.4 µM and a GI50 [5] of 2.14 µM. The TGI [5] was 4.23 µM, the GI50 [6] was 3.16 µM and the TGI [6] was 11.1 µM. The GI50 [7] was 0.498 µM, the TGI [7] was over 100 µM and the GI50 [8] was 2.59 µM. The TGI [8] was 6.42 µM, the GI50 [9] was 5.86 µM and the TGI [9] was 18.1 µM. It also gave a GI50 [10] of 1.74 µM, a TGI [10] of 3.2 µM and a GI50 [11] of 0.397 µM. The TGI [11] was 1.88 µM, the GI50 [12] was 1.45 µM and the TGI [12] was 3.54 µM. The GI50 [13] was 2.97 µM, the TGI [13] was 21.2 µM and the GI50 [14] was 2.61 µM. It also gave a TGI [14] of 6.03 µM, a GI50 [15] of 12.3 µM and a TGI [15] of 29.4 µM. The GI50 [16] was 2.96 µM, the TGI [16] was 13.3 µM and the GI50 [17] was 1.81 µM. It also gave a TGI [17] of 3.91 µM, a GI50 [18] of 3.66 µM and a TGI [18] of 12.7 µM. For the same compound, the GI50 [19] was 0.744 µM, the TGI [19] was over 100 µM and the GI50 [20] was 1.59 µM. For the same compound, the TGI [20] was 3.12 µM, the GI50 [21] was 1.09 µM and the TGI [21] was 2.47 µM. The GI50 [22] was 2.12 µM, the TGI [22] was 4.63 µM and the GI50 [23] was 2.91 µM. For the same compound, the TGI [23] was 6.69 µM, the GI50 [24] was 0.395 µM and the TGI [24] was 2.35 µM. For the same compound, the GI50 [25] was 2.75 µM, the TGI [25] was 7.06 µM and the GI50 [26] was 2.13 µM. For the same compound, the TGI [26] was 5.89 µM, the GI50 [27] was 2.95 µM and the TGI [27] was 17.9 µM. It also gave a GI50 [28] of 18.1 µM, a TGI [28] of 50.3 µM and a GI50 [29] of 3.46 µM. For the same compound, the TGI [29] was 12.6 µM, the GI50 [30] was 1.92 µM and the TGI [30] was 3.91 µM. The GI50 [31] was 1.9 µM, the TGI [31] was 3.56 µM and the GI50 [32] was 3.44 µM. It also gave a TGI [32] of 31.7 µM, a GI50 [33] of 2.63 µM and a TGI [33] of 6.04 µM. The GI50 [34] was 3.1 µM, the TGI [34] was 13.1 µM and the GI50 [35] was 2.55 µM. For the same compound, the TGI [35] was 6.6 µM, the GI50 [36] was 2.23 µM and the TGI [36] was 6.03 µM. It also gave a GI50 [37] of 2.6 µM, a TGI [37] of 7.9 µM and a GI50 [38] of 0.295 µM. The TGI [38] was 1.16 µM, the GI50 [39] was 1.66 µM and the TGI [39] was 3.38 µM. It also gave a GI50 [40] of 2.94 µM, a TGI [40] of 8.88 µM and a GI50 [42] of 2.2 µM. For the same compound, the TGI [42] was 4.98 µM, the GI50 [43] was 2.62 µM and the TGI [43] was 5.87 µM. For the same compound, the GI50 [44] was 1.79 µM, the TGI [44] was 3.54 µM and the GI50 [45] was 1.65 µM. It also gave a TGI [45] of 3.07 µM, a GI50 [46] of 4.09 µM and a TGI [46] of 14.2 µM. For the same compound, the GI50 [47] was 2.15 µM, the TGI [47] was 4.79 µM and the GI50 [48] was 3.19 µM. The TGI [48] was 13.6 µM, the GI50 [49] was 7.43 µM and the TGI [49] was 21.3 µM. For the same compound, the GI50 [50] was 0.289 µM, the TGI [50] was over 100 µM and the GI50 [51] was 0.647 µM. The TGI [51] was 2.47 µM, the GI50 [52] was 7.43 µM and the TGI [52] was 21.4 µM. The GI50 [53] was 2.97 µM, the TGI [53] was 7.76 µM and the GI50 [54] was 1.48 µM. The TGI [54] was 3.12 µM, the GI50 [55] was 1.91 µM and the TGI [55] was 4.64 µM. It also gave a GI50 [56] of 1.73 µM, a TGI [56] of 3.44 µM and a GI50 [57] of 2.01 µM. For the same compound, the TGI [57] was 6.08 µM.
